Each block holds one molecule with its values, some of them ahead of it. Calls of active or inactive are those of the source.
What was measured:
[1] = molecular target: 72 kDa type IV collagenase (Homo sapiens, UniProt P08253); assay: Dose Response validation of uHTS RPN11 inhibitor hits using a MMP-2 Fluorescence assay.; format: functional
[2] = molecular target: T1, Tyrosine-protein phosphatase non-receptor type 22 (Homo sapiens, UniProt Q9Y2R2); assay: PubChem AID 2135
T1 sequence (Q9Y2R2 whole entry): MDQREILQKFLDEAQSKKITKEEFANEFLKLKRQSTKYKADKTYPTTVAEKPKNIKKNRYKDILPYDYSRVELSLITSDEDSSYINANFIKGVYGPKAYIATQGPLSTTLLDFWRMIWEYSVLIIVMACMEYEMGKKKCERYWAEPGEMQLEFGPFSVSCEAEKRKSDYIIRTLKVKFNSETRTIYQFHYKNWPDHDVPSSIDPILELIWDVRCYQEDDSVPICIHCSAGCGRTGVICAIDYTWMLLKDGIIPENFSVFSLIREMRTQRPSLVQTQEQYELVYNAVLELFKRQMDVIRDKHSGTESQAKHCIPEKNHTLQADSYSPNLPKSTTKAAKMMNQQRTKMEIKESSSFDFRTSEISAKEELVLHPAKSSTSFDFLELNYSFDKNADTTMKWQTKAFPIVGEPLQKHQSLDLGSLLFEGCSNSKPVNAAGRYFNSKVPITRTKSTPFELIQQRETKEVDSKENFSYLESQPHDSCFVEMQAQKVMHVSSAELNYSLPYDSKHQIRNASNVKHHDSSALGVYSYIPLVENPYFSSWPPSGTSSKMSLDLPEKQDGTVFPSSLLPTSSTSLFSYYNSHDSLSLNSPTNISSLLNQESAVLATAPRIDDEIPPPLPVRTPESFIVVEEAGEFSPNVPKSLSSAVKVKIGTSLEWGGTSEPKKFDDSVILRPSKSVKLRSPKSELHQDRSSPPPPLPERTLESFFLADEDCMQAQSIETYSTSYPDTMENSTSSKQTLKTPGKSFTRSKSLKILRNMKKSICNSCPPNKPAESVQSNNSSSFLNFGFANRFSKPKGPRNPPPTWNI

[3] = CCR5-tropic HIV-1 fusion blockers – cell-based, CCR5-tropic Env, dose response (AID 2279); format: functional
[4] = molecular target: T1, Tyrosine-protein phosphatase non-receptor type 22; format: functional
[5] = molecular target: T2, Tyrosine-protein phosphatase non-receptor type 7 (Homo sapiens, UniProt P35236); format: functional
T2 sequence (P35236 whole entry): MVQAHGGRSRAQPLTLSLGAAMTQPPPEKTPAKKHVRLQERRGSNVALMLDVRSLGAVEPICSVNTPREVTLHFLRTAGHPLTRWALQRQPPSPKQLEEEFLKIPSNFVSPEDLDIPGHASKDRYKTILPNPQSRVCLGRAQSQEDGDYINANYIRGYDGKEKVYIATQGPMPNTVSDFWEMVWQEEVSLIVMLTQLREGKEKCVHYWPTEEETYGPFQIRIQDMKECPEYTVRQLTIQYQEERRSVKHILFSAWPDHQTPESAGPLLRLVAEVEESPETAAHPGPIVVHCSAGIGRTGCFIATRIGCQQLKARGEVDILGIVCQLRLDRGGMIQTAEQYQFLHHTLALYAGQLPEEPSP

[6] = molecular target: T2, Tyrosine-protein phosphatase non-receptor type 7; assay: inhibition of hematopoietic tyrosine phosphatase HePTP – biochemical, set 2, SAR follow-up (AID 449736); format: functional
[7] = molecular target: T3, Zinc finger protein mex-5 (Caenorhabditis elegans, UniProt Q9XUB2); assay: potency of MEX-5 RNA-binding blockers – biochemical, C. elegans, fluorescence polarization, dose response (AID 1960)
T3 sequence (Q9XUB2 whole entry): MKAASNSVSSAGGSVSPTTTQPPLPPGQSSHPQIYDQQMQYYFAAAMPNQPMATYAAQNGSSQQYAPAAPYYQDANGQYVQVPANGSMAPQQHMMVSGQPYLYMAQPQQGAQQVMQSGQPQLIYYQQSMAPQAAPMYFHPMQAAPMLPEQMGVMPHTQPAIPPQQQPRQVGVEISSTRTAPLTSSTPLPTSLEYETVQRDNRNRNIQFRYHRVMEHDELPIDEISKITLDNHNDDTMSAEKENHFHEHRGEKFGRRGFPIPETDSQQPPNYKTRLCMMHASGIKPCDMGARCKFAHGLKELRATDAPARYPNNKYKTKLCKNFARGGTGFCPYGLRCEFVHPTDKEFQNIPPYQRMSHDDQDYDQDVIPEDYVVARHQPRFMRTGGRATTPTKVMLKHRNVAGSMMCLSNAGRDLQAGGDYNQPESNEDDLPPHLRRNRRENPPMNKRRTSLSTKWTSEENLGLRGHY

[8] = molecular target: Tyrosine-protein phosphatase non-receptor type 12 (Homo sapiens, UniProt Q05209); assay: SAR Selectivity Analysis of small molecule inhibitors of PEST using pCAP in a fluorescence assay. [Related pubchem assays (depositor defined):AID1779, AID1784, AID2135]; format: functional
Sequence of Tyrosine-protein phosphatase non-receptor type 12 (Q05209 whole entry): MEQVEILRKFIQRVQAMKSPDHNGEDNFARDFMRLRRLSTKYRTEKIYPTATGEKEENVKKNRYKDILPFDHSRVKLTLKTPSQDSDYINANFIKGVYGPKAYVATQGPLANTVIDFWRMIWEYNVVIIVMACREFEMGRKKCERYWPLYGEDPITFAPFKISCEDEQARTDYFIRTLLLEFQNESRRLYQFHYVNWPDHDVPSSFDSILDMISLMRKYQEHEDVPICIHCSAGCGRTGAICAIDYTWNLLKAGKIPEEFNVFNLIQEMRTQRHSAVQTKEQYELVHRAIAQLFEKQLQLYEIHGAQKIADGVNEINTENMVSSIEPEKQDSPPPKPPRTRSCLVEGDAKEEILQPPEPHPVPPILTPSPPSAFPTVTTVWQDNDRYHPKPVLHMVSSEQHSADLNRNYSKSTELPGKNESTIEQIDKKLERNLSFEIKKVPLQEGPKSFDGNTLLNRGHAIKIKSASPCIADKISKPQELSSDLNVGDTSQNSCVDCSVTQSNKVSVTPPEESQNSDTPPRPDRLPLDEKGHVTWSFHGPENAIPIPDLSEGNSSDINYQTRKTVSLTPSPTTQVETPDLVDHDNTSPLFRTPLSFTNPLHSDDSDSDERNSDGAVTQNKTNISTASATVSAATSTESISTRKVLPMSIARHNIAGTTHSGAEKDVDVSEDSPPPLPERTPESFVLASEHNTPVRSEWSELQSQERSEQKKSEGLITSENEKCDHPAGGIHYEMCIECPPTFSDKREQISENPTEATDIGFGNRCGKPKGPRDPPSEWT

[9] = molecular target: T1, Tyrosine-protein phosphatase non-receptor type 22; assay: LYP1 Fluorescent Assay using OMFP substrate for In Vitro dose response studies. [Related pubchem assays (depositor defined):AID1779, AID1784, AID435024]
[10] = molecular target: T1, Tyrosine-protein phosphatase non-receptor type 22; assay: SAR LYP1 Fluorescent Assay using OMFP substrate for In Vitro dose response studies - Set 3. [Related pubchem assays (depositor defined):AID1779, AID1784, AID2140, AID2686]; format: functional
[11] = molecular target: T4, RNA-binding protein pos-1 (Caenorhabditis elegans, UniProt G5EF15); assay: disruptors of C. elegans POS-1 RNA interaction – biochemical, fluorescence polarization, dose response (AID 1964);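 note: purified POS-1 fused to maltose binding protein made in E. coli; potency of compounds blocking POS-1 binding to fluorescent RNA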
T4 sequence (G5EF15 whole entry): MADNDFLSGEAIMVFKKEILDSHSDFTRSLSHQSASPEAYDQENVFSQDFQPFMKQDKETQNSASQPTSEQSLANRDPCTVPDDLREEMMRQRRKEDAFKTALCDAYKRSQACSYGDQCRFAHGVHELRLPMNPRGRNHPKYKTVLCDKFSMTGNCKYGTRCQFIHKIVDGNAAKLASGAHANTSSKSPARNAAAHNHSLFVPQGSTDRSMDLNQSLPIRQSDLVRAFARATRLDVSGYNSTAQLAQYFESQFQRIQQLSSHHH

[12] = molecular target: T2, Tyrosine-protein phosphatase non-receptor type 7; assay: HTS HePTP Fluorescent Assay using OMFP substrate for In Vitro dose response studies. [Related pubchem assays (depositor defined):AID1059, AID1077, AID1784, AID2068, AID2085, AID435032, AID521]; format: functional
[13] = molecular target: T1, Tyrosine-protein phosphatase non-receptor type 22; assay: SAR LYP1 Fluorescent Assay using pCAP substrate for In Vitro dose response studies - Set 2. [Related pubchem assays (depositor defined):AID1779, AID1784, AID2135, AID449727]; format: functional
[14] = molecular target: 26S proteasome non-ATPase regulatory subunit 14 (Homo sapiens, UniProt O00487); assay: inhibition of proteasome subunit RPN11 – biochemical, fluorescence polarization, uHTS hits, confirmation (AID 602368); format: functional
Sequence of 26S proteasome non-ATPase regulatory subunit 14 (O00487 whole entry): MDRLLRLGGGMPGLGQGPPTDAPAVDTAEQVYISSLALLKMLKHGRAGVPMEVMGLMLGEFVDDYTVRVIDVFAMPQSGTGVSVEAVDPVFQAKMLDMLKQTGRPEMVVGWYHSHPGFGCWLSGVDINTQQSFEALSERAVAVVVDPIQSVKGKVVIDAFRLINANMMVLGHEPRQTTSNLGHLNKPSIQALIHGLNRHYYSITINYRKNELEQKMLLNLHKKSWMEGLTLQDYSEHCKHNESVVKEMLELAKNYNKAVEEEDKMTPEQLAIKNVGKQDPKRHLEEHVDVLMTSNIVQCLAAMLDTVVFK

[15] = molecular target: T1, Tyrosine-protein phosphatase non-receptor type 22; assay: PubChem AID 2140
[16] = molecular target: T1, Tyrosine-protein phosphatase non-receptor type 22; assay: PTPN22 lymphoid phosphatase activity blockers – biochemical, fluorescence intensity, uHTS (AID 1779)
[17] = molecular target: T1, Tyrosine-protein phosphatase non-receptor type 22; assay: SAR LYP1 Fluorescent Assay using OMFP substrate for In Vitro dose response studies - Set 2. [Related pubchem assays (depositor defined):AID1779, AID1784, AID2140, AID449726, AID488869]; format: functional
[18] = molecular target: Envelope glycoprotein gp160 (Human immunodeficiency virus 1, UniProt Q6QLK5); assay: cell-free HIV fusion peptide-binding blockers – biochemical, uHTS, fluorescence dequenching, […] (AID 1986)
Prothrombin = Prothrombin (Bos taurus, UniProt P00735); assay: thrombin protease inhibitors – biochemical, fluorescence polarization, uHTS hits, dose response (AID 602369); format: functional
[19] = molecular target: T5, Delta-type opioid receptor (Homo sapiens, UniProt P41143); assay: DOR agonists, SAR follow-up, image-based (AID 2370); format: functional
T5 sequence (P41143 whole entry): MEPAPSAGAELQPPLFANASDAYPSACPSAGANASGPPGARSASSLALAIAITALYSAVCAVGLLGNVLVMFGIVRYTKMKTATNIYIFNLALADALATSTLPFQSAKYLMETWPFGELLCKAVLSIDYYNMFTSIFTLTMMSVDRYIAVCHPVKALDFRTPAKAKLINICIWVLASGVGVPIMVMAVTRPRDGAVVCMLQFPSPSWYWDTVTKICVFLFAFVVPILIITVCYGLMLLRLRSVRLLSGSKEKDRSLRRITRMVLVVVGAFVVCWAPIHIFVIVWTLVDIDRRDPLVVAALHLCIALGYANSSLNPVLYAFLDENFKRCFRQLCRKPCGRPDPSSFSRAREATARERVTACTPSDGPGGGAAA

[20] = molecular target: T5, Delta-type opioid receptor; assay: delta opioid receptor blockers – image-based, SAR follow-up (AID 2357); format: functional
Mu-type opioid receptor [21] = molecular target: T6, Mu-type opioid receptor (Homo sapiens, UniProt P35372); assay: mu opioid receptor activators, image-based, SAR follow-up (AID 2352); format: functional
T6 sequence (P35372 whole entry): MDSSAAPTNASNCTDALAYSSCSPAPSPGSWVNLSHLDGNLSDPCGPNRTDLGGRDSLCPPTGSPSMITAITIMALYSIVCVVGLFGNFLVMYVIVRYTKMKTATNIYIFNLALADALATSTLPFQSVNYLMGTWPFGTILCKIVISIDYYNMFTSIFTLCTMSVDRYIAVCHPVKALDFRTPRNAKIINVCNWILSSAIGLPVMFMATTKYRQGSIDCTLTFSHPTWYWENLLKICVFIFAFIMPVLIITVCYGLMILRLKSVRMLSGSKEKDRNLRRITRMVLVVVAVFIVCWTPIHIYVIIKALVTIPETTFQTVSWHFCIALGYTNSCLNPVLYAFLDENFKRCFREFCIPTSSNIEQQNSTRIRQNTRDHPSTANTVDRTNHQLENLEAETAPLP

Mu-type opioid receptor [22] = molecular target: T6, Mu-type opioid receptor; assay: mu opioid receptor blockers – image-based, SAR follow-up (AID 2420); format: functional;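 note: compounds added before stimulation of receptor with agonist DAMGO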
[23] = molecular target: T7, Kappa-type opioid receptor (Homo sapiens, UniProt P41145); assay: SAR analysis of small molecule agonists of the kappa opioid receptor via a luminescent beta-arrestin assay. [Related pubchem assays (depositor defined):AID1777, AID1786, AID1966, AID2133, AID2136, AID2348, AID2352, AID2357, AID2359, AID2370, AID2420, AID2478, AID2491, AID2492, AID2493, AID2497, AID2498, AID2500, AID449737, AID488822, AID488842]; format: functional
T7 sequence (P41145 whole entry): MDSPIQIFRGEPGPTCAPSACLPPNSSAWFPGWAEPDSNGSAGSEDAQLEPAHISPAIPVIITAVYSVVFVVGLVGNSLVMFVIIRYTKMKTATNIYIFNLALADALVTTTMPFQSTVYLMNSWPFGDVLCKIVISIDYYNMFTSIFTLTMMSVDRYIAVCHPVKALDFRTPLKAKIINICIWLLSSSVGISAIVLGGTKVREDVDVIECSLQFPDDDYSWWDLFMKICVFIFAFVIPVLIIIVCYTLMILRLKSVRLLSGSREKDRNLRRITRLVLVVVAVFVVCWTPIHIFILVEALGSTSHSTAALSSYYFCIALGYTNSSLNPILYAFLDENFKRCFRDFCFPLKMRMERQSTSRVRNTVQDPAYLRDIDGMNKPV

[24] = molecular target: T7, Kappa-type opioid receptor; assay: kappa opioid receptor blockers, image-based, SAR follow-up (AID 2348); format: functional
[25] = molecular target: T7, Kappa-type opioid receptor; assay: kappa opioid receptor activation potency – imaging, image-based, SAR follow-up (AID 2359); format: functional
[26] = Counterscreen for AddAB inhibitors: absorbance-based bacterial cell-based high throughput dose response assay for inhibitors of bacterial viability. [Related pubchem assays (depositor defined):AID435030, AID449728, AID449731, AID488942, AID488955, AID488956]; format: functional
Exodeoxyribonuclease V = Exodeoxyribonuclease V (Escherichia coli (strain K12), UniProt P04993+P07648+P08394); assay: RecBCD inhibition via phage-restricted bacterial growth – absorbance, V66 E. coli, mutant T4 phage, counter-screen for AddAB inhibitor project, dose response (AID 492957); format: functional, cell-based, Escherichia coli str. K-12 substr. MG1655
Phosphomannomutase 2 = Phosphomannomutase 2 (Homo sapiens, UniProt O15305); assay: Counter screen SAR assay for PMM2 inhibitors via a fluorescence intensity assay. [Related pubchem assays (depositor defined):AID1545, AID1574]
Sequence of Phosphomannomutase 2 (O15305 whole entry): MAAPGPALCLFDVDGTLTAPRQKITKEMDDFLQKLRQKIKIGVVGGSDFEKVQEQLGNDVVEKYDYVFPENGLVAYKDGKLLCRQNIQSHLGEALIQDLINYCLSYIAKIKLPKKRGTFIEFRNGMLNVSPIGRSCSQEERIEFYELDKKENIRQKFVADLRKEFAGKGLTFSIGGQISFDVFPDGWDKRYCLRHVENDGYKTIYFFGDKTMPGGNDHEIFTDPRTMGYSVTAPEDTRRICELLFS

[27] = molecular target: T8, Mannose-6-phosphate isomerase (Homo sapiens, UniProt P34949); assay: phosphomannose isomerase inhibition – biochemical, fluorescence intensity, confirmation (AID 1535)
T8 sequence (P34949 whole entry): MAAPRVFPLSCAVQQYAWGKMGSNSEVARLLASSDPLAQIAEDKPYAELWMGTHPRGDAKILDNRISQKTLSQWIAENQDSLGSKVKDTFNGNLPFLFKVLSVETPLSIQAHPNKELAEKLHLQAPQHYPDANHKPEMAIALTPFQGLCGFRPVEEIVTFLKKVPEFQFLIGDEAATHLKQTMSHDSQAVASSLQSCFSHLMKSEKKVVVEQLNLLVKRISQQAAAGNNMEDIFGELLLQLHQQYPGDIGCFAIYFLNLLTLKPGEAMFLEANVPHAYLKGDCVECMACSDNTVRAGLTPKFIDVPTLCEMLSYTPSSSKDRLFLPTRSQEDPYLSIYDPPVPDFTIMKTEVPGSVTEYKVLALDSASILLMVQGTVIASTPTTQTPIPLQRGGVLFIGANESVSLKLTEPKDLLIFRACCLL

Tumor necrosis factor = Tumor necrosis factor (Homo sapiens, UniProt P01375); assay: analog potency on TNFa NF-kB signaling – cell-based, revised, SAR follow-up (AID 2337); format: functional
Sequence of Tumor necrosis factor (P01375 whole entry, the tested form may be a part): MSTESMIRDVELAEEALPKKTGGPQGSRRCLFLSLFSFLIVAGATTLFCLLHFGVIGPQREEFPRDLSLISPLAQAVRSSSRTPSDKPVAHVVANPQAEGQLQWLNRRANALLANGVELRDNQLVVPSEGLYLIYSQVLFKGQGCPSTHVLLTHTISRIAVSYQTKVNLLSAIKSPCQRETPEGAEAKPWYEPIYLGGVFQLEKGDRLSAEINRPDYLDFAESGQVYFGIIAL

[28] = molecular target: Nucleotide-binding oligomerization domain-containing protein 2 (Homo sapiens, UniProt Q9HC29); assay: PubChem AID 2334; format: functional
Sequence of Nucleotide-binding oligomerization domain-containing protein 2 (Q9HC29 whole entry, the tested form may be a part): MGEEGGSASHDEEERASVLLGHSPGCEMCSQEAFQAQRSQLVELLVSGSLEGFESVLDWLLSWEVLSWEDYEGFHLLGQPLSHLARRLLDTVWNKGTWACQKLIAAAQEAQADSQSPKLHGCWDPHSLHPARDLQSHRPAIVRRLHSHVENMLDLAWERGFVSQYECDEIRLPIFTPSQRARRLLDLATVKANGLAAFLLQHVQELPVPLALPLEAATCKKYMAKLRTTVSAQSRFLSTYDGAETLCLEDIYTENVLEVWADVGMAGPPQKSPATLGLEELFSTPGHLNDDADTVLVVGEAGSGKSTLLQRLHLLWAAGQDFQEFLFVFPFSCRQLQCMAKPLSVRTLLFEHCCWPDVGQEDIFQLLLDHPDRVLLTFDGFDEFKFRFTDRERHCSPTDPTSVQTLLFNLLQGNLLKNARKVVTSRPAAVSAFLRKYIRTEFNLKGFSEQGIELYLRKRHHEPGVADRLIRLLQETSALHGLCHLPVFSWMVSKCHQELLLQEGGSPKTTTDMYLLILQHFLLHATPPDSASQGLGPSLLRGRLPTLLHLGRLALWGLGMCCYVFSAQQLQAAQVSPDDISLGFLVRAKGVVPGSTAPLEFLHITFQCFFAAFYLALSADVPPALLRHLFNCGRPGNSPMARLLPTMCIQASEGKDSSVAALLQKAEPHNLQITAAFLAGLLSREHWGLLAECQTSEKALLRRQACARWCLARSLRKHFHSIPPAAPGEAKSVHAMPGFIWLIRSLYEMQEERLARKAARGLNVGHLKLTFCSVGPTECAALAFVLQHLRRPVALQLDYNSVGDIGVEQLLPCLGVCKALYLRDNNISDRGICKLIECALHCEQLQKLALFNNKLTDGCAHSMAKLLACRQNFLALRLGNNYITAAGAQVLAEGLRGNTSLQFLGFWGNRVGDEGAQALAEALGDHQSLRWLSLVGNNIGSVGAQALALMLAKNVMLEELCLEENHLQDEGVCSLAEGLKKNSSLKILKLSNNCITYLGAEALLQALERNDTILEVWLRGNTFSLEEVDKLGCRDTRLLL

HEK293 = assay: cells; details: Homo sapiens;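 note: cells exposed to compound for 14 hours overnight before viability readout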
[29] = molecular target: Nucleotide-binding oligomerization domain-containing protein 1 (Homo sapiens, UniProt Q9Y239); assay: blockers of NOD1 pathway activity – revised, SAR follow-up (AID 2333); format: functional
[30] = molecular target: T7, Kappa-type opioid receptor; assay: SAR analysis of small molecule agonists of the kappa opioid receptor via a luminescent beta-arrestin assay - Set 3. [Related pubchem assays (depositor defined):AID1777, AID1785, AID1786, AID1966, AID2133, AID2136, AID2284, AID2500]; format: functional

Sequence of 72 kDa type IV collagenase (P08253 whole entry): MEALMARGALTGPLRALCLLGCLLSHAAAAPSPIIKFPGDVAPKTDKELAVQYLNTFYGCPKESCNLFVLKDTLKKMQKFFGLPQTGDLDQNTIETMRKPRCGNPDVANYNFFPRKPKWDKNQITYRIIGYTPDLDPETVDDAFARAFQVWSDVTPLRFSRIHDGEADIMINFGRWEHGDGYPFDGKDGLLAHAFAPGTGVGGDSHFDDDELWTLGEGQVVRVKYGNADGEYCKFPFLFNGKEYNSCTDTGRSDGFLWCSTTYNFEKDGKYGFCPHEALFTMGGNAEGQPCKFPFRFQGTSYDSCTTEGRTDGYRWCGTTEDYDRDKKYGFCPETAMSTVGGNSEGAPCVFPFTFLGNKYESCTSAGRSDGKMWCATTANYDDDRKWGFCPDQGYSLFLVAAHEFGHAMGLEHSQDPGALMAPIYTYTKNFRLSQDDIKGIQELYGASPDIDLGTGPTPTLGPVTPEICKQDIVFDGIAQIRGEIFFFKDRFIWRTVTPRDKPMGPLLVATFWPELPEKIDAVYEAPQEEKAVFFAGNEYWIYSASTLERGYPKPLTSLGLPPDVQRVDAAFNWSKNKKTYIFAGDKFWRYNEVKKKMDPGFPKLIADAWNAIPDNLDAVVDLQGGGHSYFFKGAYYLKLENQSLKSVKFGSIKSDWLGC

SMILES: O=C(O)CCCN1C(=O)/C(=C/c2ccc(-c3nc4ccccc4s3)o2)SC1=S
- IC50 [1]: > 100 µM (inactive)
- IC50 [2]: 3.69 µM (active)
- IC50 [3]: 4.43 µM (active)
- IC50 [4]: 4.77 µM (active)
- IC50 [5]: 11.5 µM (active)
- IC50 [6]: 0.608 µM (active)
- EC50 [7]: 20.4 µM (active)
- IC50 [8]: 1.63 µM (active)
- IC50 [9]: 6.14 µM (active)
- IC50 [10]: 11.2 µM (active)
- EC50 [11]: 3.39 µM (active)
- IC50 [12]: 24.6 µM (active)
- IC50 [13]: 3.1 µM (active)
- IC50 [14]: 5.26 µM (active)
- IC50 [15]: 16 µM (active)
- IC50 [16]: 7.71 µM (active)
- IC50 [17]: 3.92 µM (active)
- IC50 [18]: 11.7 µM (active)
- IC50 (Prothrombin): 34.5 µM (active)

- EC50 [19]: > 32 µM (inactive)
- IC50 [20]: > 32 µM (inactive)
- EC50 (Mu-type opioid receptor [21]): > 32 µM (inactive)
- IC50 (Mu-type opioid receptor [22]): > 32 µM (inactive)
- EC50 [23]: > 10 µM (inactive)
- IC50 [24]: > 32 µM (inactive)
- EC50 [25]: > 32 µM (inactive)
SMILES: Cc1ccc2[nH]c(=O)c(CN(C)C(=O)c3ccccn3)cc2c1

SMILES: Cc1cccnc1NC(=O)c1ccc([N+](=O)[O-])o1
- IC50 [26]: 29.9 µM (inactive)
- IC50 (Exodeoxyribonuclease V): > 119 µM (inactive)

- IC50 (Phosphomannomutase 2): > 100 µM (inactive)
- IC50 [27]: > 50 µM (inactive)
SMILES: CCOc1ccc(-c2nnc(S)o2)cc1

SMILES: O=C(Nc1nc2ccccc2n1Cc1ccccc1Cl)C1CCCCC1
- IC50 (Tumor necrosis factor): > 20 µM (inactive)
- IC50 [28]: > 20 µM (inactive)
- IC50 (HEK293): > 20 µM (inactive)
- IC50 [29]: > 20 µM (inactive)

- EC50 [30]: > 20 µM (inactive)
SMILES: c1ccc(CSc2nnc(-c3ccccn3)n2Cc2ccccc2)cc1

From ChEMBL document CHEMBL1201862, “PubChem BioAssay data set” (2004)
